According to the CheMixHub viscosity set:
Several values for one entry are separate records, joined by “and”; a condition that tells them apart may be missing. Identical values can stand only once. ± gives the uncertainty stated by the source.

Experiment: xn = mol fraction of the nth substance listed

Cc1ccccc1O + CC12CCC(CC1)C(C)(C)O2
viscosity [mPa·s], 101 kPa
Conditions | x2 = 0.0644 | x2 = 0.1341 | x2 = 0.2098 | x2 = 0.2923 | x2 = 0.3825 | x2 = 0.4817 | x2 = 0.5911 | x2 = 0.7125 | x2 = 0.8479
303.15 K | 6.716 ± 0.18 | 7.057 ± 0.19 | 7.387 ± 0.2 | 7.431 ± 0.2 | 7.201 ± 0.19 | 6.63 ± 0.18 | 5.917 ± 0.16 | 4.949 ± 0.14 | 3.732 ± 0.11
308.15 K | 5.48 ± 0.16 | 5.76 ± 0.16 | 5.997 ± 0.17 | 6.081 ± 0.17 | 5.929 ± 0.17 | 5.628 ± 0.16 | 5.058 ± 0.15 | 4.201 ± 0.12 | 3.201 ± 0.096
313.15 K | 4.569 ± 0.13 | 4.81 ± 0.14 | 4.944 ± 0.14 | 5.041 ± 0.15 | 5.032 ± 0.15 | 4.696 ± 0.14 | 4.12 ± 0.12 | 3.359 ± 0.1 | 2.48 ± 0.077

CCCCCC + Cc1ccccc1
Conditions | viscosity
298.15 K, 101 kPa, x1 = 0.1 | 0.5021 ± 0.0065 mPa·s
298.15 K, 101 kPa, x1 = 0.121 | 0.504 ± 0.014 mPa·s
298.15 K, 101 kPa, x1 = 0.2 | 0.4602 ± 0.0059 mPa·s
298.15 K, 101 kPa, x1 = 0.211 | 0.471 ± 0.013 mPa·s
298.15 K, 101 kPa, x1 = 0.299 | 0.443 ± 0.012 mPa·s
298.15 K, 101 kPa, x1 = 0.3 | 0.4254 ± 0.0055 mPa·s
298.15 K, 101 kPa, x1 = 0.4 | 0.3964 ± 0.0052 mPa·s
298.15 K, 101 kPa, x1 = 0.5 | 0.372 ± 0.0049 mPa·s
298.15 K, 101 kPa, x1 = 0.6 | 0.3513 ± 0.0046 mPa·s and 0.37 ± 0.01 mPa·s
298.15 K, 101 kPa, x1 = 0.7 | 0.3336 ± 0.0044 mPa·s
298.15 K, 101 kPa, x1 = 0.712 | 0.349 ± 0.01 mPa·s
298.15 K, 101 kPa, x1 = 0.799 | 0.335 ± 0.009 mPa·s
298.15 K, 101 kPa, x1 = 0.8 | 0.3186 ± 0.0042 mPa·s
298.15 K, 101 kPa, x1 = 0.9 | 0.3059 ± 0.0041 mPa·s
298.15 K, 101 kPa, x2 = 0.1483 | 0.321 ± 0.0041 mPa·s
298.15 K, 101 kPa, x2 = 0.1826 | 0.333 ± 0.0042 mPa·s
298.15 K, 101 kPa, x2 = 0.2169 | 0.34 ± 0.0043 mPa·s
298.15 K, 101 kPa, x2 = 0.2524 | 0.348 ± 0.0044 mPa·s
298.15 K, 101 kPa, x2 = 0.2897 | 0.36 ± 0.0045 mPa·s
298.15 K, 101 kPa, x2 = 0.3286 | 0.366 ± 0.0046 mPa·s
298.15 K, 101 kPa, x2 = 0.3707 | 0.377 ± 0.0047 mPa·s
298.15 K, 101 kPa, x2 = 0.4105 | 0.3865 ± 0.0048 mPa·s
298.15 K, 101 kPa, x2 = 0.4556 | 0.3985 ± 0.0049 mPa·s
298.15 K, 101 kPa, x2 = 0.5039 | 0.4115 ± 0.0051 mPa·s
298.15 K, 101 kPa, x2 = 0.552 | 0.426 ± 0.0053 mPa·s
298.15 K, 101 kPa, x2 = 0.6002 | 0.44 ± 0.0054 mPa·s
298.15 K, 101 kPa, x2 = 0.6539 | 0.457 ± 0.0056 mPa·s
298.15 K, 101 kPa, x2 = 0.6976 | 0.471 ± 0.0058 mPa·s
298.15 K, 101 kPa, x2 = 0.7444 | 0.486 ± 0.0059 mPa·s
298.23 K, 100 kPa, x1 = 0.5 | 0.3708 ± 0.03 mPa·s
298.28 K, 100 kPa, x1 = 0.25 | 0.4404 ± 0.035 mPa·s
298.3 K, 100 kPa, x1 = 0.75 | 0.3227 ± 0.026 mPa·s
303.15 K, 101.33 kPa, x1 = 0.0826 | 0.4983 ± 0.0051 mPa·s
303.15 K, 101.33 kPa, x1 = 0.1685 | 0.4637 ± 0.0049 mPa·s
303.15 K, 101.33 kPa, x1 = 0.2578 | 0.4362 ± 0.0046 mPa·s
303.15 K, 101.33 kPa, x1 = 0.3509 | 0.4117 ± 0.0044 mPa·s
303.15 K, 101.33 kPa, x1 = 0.4477 | 0.3884 ± 0.0042 mPa·s
303.15 K, 101.33 kPa, x1 = 0.5487 | 0.3671 ± 0.004 mPa·s
303.15 K, 101.33 kPa, x1 = 0.6541 | 0.3492 ± 0.0039 mPa·s
303.15 K, 101.33 kPa, x1 = 0.7643 | 0.3299 ± 0.0037 mPa·s
303.15 K, 101.33 kPa, x1 = 0.8795 | 0.3136 ± 0.0036 mPa·s
308.15 K, 101 kPa, x1 = 0.121 | 0.448 ± 0.012 mPa·s
308.15 K, 101 kPa, x1 = 0.211 | 0.42 ± 0.012 mPa·s
308.15 K, 101 kPa, x1 = 0.299 | 0.395 ± 0.011 mPa·s
308.15 K, 101 kPa, x1 = 0.448 | 0.361 ± 0.01 mPa·s
308.15 K, 101 kPa, x1 = 0.6 | 0.332 ± 0.009 mPa·s
308.15 K, 101 kPa, x1 = 0.712 | 0.314 ± 0.009 mPa·s
308.15 K, 101 kPa, x1 = 0.799 | 0.302 ± 0.008 mPa·s
313.15 K, 101.33 kPa, x1 = 0.0826 | 0.4542 ± 0.0048 mPa·s
313.15 K, 101.33 kPa, x1 = 0.1685 | 0.4265 ± 0.0045 mPa·s
313.15 K, 101.33 kPa, x1 = 0.2578 | 0.4033 ± 0.0043 mPa·s
313.15 K, 101.33 kPa, x1 = 0.3509 | 0.3782 ± 0.0041 mPa·s
313.15 K, 101.33 kPa, x1 = 0.4477 | 0.3592 ± 0.004 mPa·s
313.15 K, 101.33 kPa, x1 = 0.5487 | 0.3375 ± 0.0038 mPa·s
313.15 K, 101.33 kPa, x1 = 0.6541 | 0.3202 ± 0.0036 mPa·s
313.15 K, 101.33 kPa, x1 = 0.7643 | 0.3043 ± 0.0035 mPa·s
313.15 K, 101.33 kPa, x1 = 0.8795 | 0.2896 ± 0.0034 mPa·s
323.15 K, 101 kPa, x1 = 0.121 | 0.382 ± 0.011 mPa·s
323.15 K, 101 kPa, x1 = 0.211 | 0.36 ± 0.01 mPa·s
323.15 K, 101 kPa, x1 = 0.299 | 0.341 ± 0.01 mPa·s
323.15 K, 101 kPa, x1 = 0.448 | 0.314 ± 0.009 mPa·s
323.15 K, 101 kPa, x1 = 0.6 | 0.292 ± 0.008 mPa·s
323.15 K, 101 kPa, x1 = 0.712 | 0.278 ± 0.008 mPa·s
323.15 K, 101 kPa, x1 = 0.799 | 0.255 ± 0.007 mPa·s
323.15 K, 101.33 kPa, x1 = 0.0826 | 0.4006 ± 0.0043 mPa·s
323.15 K, 101.33 kPa, x1 = 0.1685 | 0.3747 ± 0.0041 mPa·s
323.15 K, 101.33 kPa, x1 = 0.2578 | 0.3545 ± 0.0039 mPa·s
323.15 K, 101.33 kPa, x1 = 0.3509 | 0.3354 ± 0.0037 mPa·s
323.15 K, 101.33 kPa, x1 = 0.4477 | 0.3184 ± 0.0036 mPa·s
323.15 K, 101.33 kPa, x1 = 0.5487 | 0.3022 ± 0.0035 mPa·s
323.15 K, 101.33 kPa, x1 = 0.6541 | 0.2867 ± 0.0033 mPa·s
323.15 K, 101.33 kPa, x1 = 0.7643 | 0.2736 ± 0.0032 mPa·s
323.15 K, 101.33 kPa, x1 = 0.8795 | 0.262 ± 0.0031 mPa·s
